Measured values: US9303042B2, “Triazolothienopyrimidine compound inhibitors of urea transporters and methods of using inhibitors” (The Regents of the University of California, priority 2012, dated 2016)
Read-outs that look alike come from different tables or passages of the source.

Tests used:
[1] = In vitro metabolic stability in hepatic microsomes; assay type: in vitro ADME, rat; settings: for % Remaining after 10 min incubation with liver microsomes: NADPH, compound 5 μM; for % Remaining: parent molecule after 30 min incubation with rat liver microsomes
Description: Compounds, each at 5 μM, were incubated for specified times at 37° C. with rat liver microsomes (1 mg protein/ml; Sigma-Aldrich, St. Louis, Mo.) in potassium phosphate buffer (100 mM) containing 1 mM NADPH. The mixture was then chilled on ice, and 0.5 ml of ice-cold ethyl acetate was added.

UT-B = target: T1, UT-B (Mus musculus, UniProt Q8VHL0); experiment: Erythrocyte lysis assay of UT-B inhibition; assay type: cell-based; set-up: Screening was performed using mouse erythrocytes, which strongly express UT-B; endogenous in cells; host or cells: erythrocytes in whole blood of wild-type CD1 mice; settings: read-out: IC50
T1 sequence (Q8VHL0 1-384): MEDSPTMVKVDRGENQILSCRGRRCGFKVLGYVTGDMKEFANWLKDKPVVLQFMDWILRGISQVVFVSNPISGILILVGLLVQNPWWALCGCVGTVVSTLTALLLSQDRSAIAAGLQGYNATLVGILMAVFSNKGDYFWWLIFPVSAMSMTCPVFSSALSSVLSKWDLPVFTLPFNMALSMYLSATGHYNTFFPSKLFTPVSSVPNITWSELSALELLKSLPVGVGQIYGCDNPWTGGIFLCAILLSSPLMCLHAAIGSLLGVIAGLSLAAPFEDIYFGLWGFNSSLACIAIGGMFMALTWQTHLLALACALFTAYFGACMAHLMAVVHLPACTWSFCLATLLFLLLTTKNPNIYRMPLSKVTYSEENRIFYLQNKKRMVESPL
Description: Screening was performed using mouse erythrocytes, which strongly express UT-B and are highly water permeable because the cells also express aquaporin-1 (AQP1) water channels. The screening method involved assay of erythrocyte lysis in response to a large, outwardly directed gradient of acetamide, a urea analog that is transported efficiently by UT-B. A large, outwardly directed gradient of acetamide causes transient cell swelling, but little cell lysis, because UT-B-facilitated acetamide efflux limits water influx (see FIG. 1A). UT-B inhibition prevents acetamide efflux, allowing unopposed cell swelling and consequent cell lysis, which was recorded by reduced near-infrared light absorption at 710 nm.
Primary screening was done using a collection of 100,000 diverse, drug-like compounds from commercial sources (ChemDiv, San Diego, Calif.; Asinex, Winston-Salem, N.C.). […] Vigorous mixing was achieved by repeated pipetting. Erythrocyte lysis was quantified by absorbance at 710 nm wavelength, made within 5 min after hypo-osmolar shock. […] For analysis of structure-activity relationships >900 commercially available analogs (ChemDiv and Asinex) were tested.

[2] = Table 1, commercially available analogues, erythrocyte lysis assay
[3] = Table 2, synthesized inhibitors, red blood cell lysis assay (n = 3), single-site saturation model

Row | SMILES | % Remaining after 10 min incubation with liver microsomes [1] | IC50 (UT-B; [2]) | metabolic stability (in words) ([1]; hepatic microsomes) | % Remaining [1] | IC50 (UT-B; [3])
1 | Cc1ccc(S(=O)(=O)c2nnn3c2nc(NCc2ccccc2)c2sccc23)cc1C [Compound 2ao, [3-(3,4-dimethyl-benzenesulfonyl)-thieno[2,3-e][1,2,3]triazolo[1,5-a]pyrimidin-5-yl]-benzyl-amine] | 3% | 1000 nM |  |  | 
2 | CCc1ccc(S(=O)(=O)c2nnn3c2nc(N(CC)CC)c2sccc23)cc1 [Compound 2bs] | 6% | 1770 nM |  |  | 
3 | Cc1ccc(S(=O)(=O)c2nnn3c2nc(NCc2ccc(F)cc2)c2sccc23)cc1 [Compound 2aj, [3-(4-methyl-benzenesulfonyl)-thieno[2,3-e][1,2,3]triazolo[1,5-a]pyrimidin-5-yl]-(4-fluoro-benzyl)-amine] | 86% | 733 nM | improved metabolic stability |  | 
4 | COCCNc1nc2c(S(=O)(=O)c3ccc(Cl)cc3)nnn2c2ccsc12 [Compound 2bh, {3-[4-chloro-benzenesulfonyl]-thieno[2,3-e][1,2,3]triazolo[1,5-a]pyrimidin-5-yl}-2-methoxyethyl-amine] | 63% | 1910 nM |  |  | 
5 | CCc1ccc(S(=O)(=O)c2nnn3c2nc(NCC2CCCO2)c2sccc23)cc1 (centres unmarked) [Compound 2bu, tetrahydrofuran-2-ylmethyl-[3-(4-ethyl-benzenesulfonyl)-thieno[2,3-e][1,2,3]triazolo[1,5-a]pyrimidin-5-yl]-amine] | 26% | 891 nM |  |  | 
6 | CCc1ccc(S(=O)(=O)c2nnn3c2nc(NCCC(C)C)c2sccc23)cc1 [Compound 2bv] | 59% | 662 nM |  |  | 
7 | CCc1ccc(S(=O)(=O)c2nnn3c2nc(NCc2ccccc2)c2sccc23)cc1 [Compound 2br, [3-(4-ethyl-benzenesulfonyl)-thieno[2,3-e][1,2,3]triazolo[1,5-a]pyrimidin-5-yl]-benzyl-amine] | 44% | 664 nM |  |  | 
8 | CCc1ccc(S(=O)(=O)c2nnn3c2nc(NCc2cccc(OC)c2)c2sccc23)cc1 [Compound 2bx, [3-(4-ethyl-benzenesulfonyl)-thieno[2,3-e][1,2,3]triazolo[1,5-a]pyrimidin-5-yl]-(3-methoxy-benzyl)-amine] | <2% | 291 nM |  |  | 
9 | COCCNc1nc2c(S(=O)(=O)c3ccc(Br)cc3)nnn2c2ccsc12 [Compound 2ct] | 53% | 959 nM |  |  | 
10 | CC(C)c1ccc(S(=O)(=O)c2nnn3c2nc(NCc2cccc4ccccc24)c2sccc23)cc1 [Compound 3j, [3-(4-Isopropyl-benzenesulfonyl)-thieno[2,3-e][1,2,3]triazolo[1,5-a]pyrimidin-5-yl]-naphthalen-1-ylmethyl-amine] |  |  |  | 45% | > 2500 nM
11 | Cc1ccc(C)c(S(=O)(=O)c2nnn3c2nc(NCCC(C)C)c2sccc23)c1 [Compound 2cj] | 61% | 1450 nM |  |  | 
12 | COc1ccc(CNc2nc3c(S(=O)(=O)c4ccc(C(C)C)cc4)nnn3c3ccsc23)cc1 [Compound 3e, [3-(4-Isopropyl-benzenesulfonyl)-thieno[2,3-e][1,2,3]triazolo[1,5-a]pyrimidin-5-yl]-(4-methoxy-benzyl)-amine] |  |  |  | 7% | 5290 nM
13 | CCc1ccc(S(=O)(=O)c2nnn3c2nc(NCCCN2CCCC2=O)c2sccc23)cc1 [Compound 2cg] | 2% | 1500 nM |  |  | 
14 | Cc1ccc(S(=O)(=O)c2nnn3c2nc(NCc2ccco2)c2sccc23)cc1C [Compound 2am, furan-2-ylmethyl-[3-(3,4-dimethyl-benzenesulfonyl)-thieno[2,3-e][1,2,3]triazolo[1,5-a]pyrimidin-5-yl]-amine] | <2% | 156 nM |  |  | 
